In US5230897A, “Transdermal pentamidine” (priority 1991, dated 1993):
Values joined by “and” are separate entries in the source; they are usually repeats but may differ in a detail not shown here. Identical values can stand only once. Like-named read-outs stand apart in the source and are kept apart here.

Columns and labels:
[1] = Protocol: The in vitro studies described herein measured the rate of pentamidine transport across skin excised from a "nude" mouse. The skin is placed in a vertical two-chambered device. The skin partitions between a donor compartment containing a formulation to be tested and a receptor compartment containing the aqueous medium. The skin is clamped in place with skin epidermis facing the donor compartment. A water jacket maintains a constant temperature (37° C.).
The following pharmaceutical formulations were prepared by dissolving any dry ingredients (i.e. pentamidine isethionate, terpene, methyl paraben, propyl paraben) in the solvent (i.e. isopropyl alcohol/water or propylene glycol/water). […] Gentle stirring was then continued for the next 15 minutes or until the solution thickened. When polyquaternium-10 is the polymer heating was required to make the formulation gel.

[2] = Pentamidine pharmacokinetics after transdermal application in Rhesus monkeys (plasma, urine, residual analysis)
[3] = rhesus monkey, in vivo
[4] = Pentamidine pharmacokinetics after IV infusion in Rhesus monkeys (plasma, urine); format: in vivo
Protocol: Pentamidine was administered to four Rhesus monkeys by an IV infusion of 1 hr duration which was designed to deliver 4 mg drug/kg animal weight. Urine samples were obtained at -24 to 0 hr, 0 to 3 hr, 3 to 7 hr, 7 to 24 hr and 24 to 48 hr. Blood (2 ml) was withdrawn from an arm vein at -24 hr, 0.5 hr, 1 hr, 2 hr, 3 hr, 5 hr, 7 hr, 24 hr and 48 hr after the end of the IV infusion. Plasma was obtained from the heparinized blood by centrifugation.

C/C=C/c1ccc(OC)cc1 [t-anethole]
penetration enhancement for transdermal delivery of pentamidine ([1]; result in words): effective penetration enhancers

CC(C)[C@@H]1CC[C@@H](C)CC1=O [menthone]
penetration enhancement for transdermal delivery of pentamidine ([1]; result in words): effective penetration enhancers

C=C(C)C1CCC(C)C(=O)C1 (stereo not drawn) [dihydrocarvone]
penetration enhancement for transdermal delivery of pentamidine ([1]; result in words): effective penetration enhancers

CC(C)=CCCC(C)=CC=O [citral]
penetration enhancement for transdermal delivery of pentamidine ([1]; result in words): effective penetration enhancers

CC1=CCC(O)(C(C)C)CC1 (stereo not drawn) [terpene-4-ol]
penetration enhancement for transdermal delivery of pentamidine [1]: effective penetration enhancers

C=C(C)[C@@H]1CC[C@@H](C)C[C@H]1O [isopulegol]
penetration enhancement for transdermal delivery of pentamidine ([1]; result in words): effective penetration enhancers

CC(C)=C1CC[C@@H](C)CC1=O [pulegone]
penetration enhancement for transdermal delivery of pentamidine ([1]; result in words): effective penetration enhancers

C=C(C)C1CC=C(C)[C@@H](O)C1 (stereo partly drawn) [carveol]
penetration enhancement for transdermal delivery of pentamidine [1]: effective penetration enhancers

C=CC(C)(O)CCC=C(C)C (stereo not drawn) [linalol]
penetration enhancement for transdermal delivery of pentamidine ([1]; result in words): effective penetration enhancers

CC(C)[C@@H]1CC[C@@H](C)C[C@@H]1O (relative stereo) [neomenthol]
penetration enhancement for transdermal delivery of pentamidine ([1]; result in words): effective penetration enhancers

CC1CCC(C(C)C)C(O)C1 (stereo not drawn) [menthol]
penetration enhancement for transdermal delivery of pentamidine ([1]; result in words): effective penetration enhancers

N=C(N)c1ccc(OCCCCCOc2ccc(C(=N)N)cc2)cc1 [pentamidine, 4,4'-[1,5-Pentanediylbis(oxy)]bisbenzenecarboximidamide]
% Absolute Bioavail. ([2]; (AUCtrans/AUCiv) × (DOSEiv/DOSEtrans) × 100, individual monkeys 1, 2, 3, 4): 99.2% and 29.03% and 18.99% and 27.19%
residual pentamidine recovered from transdermal chambers ([2]; chambers removed 24 hr after application): Only small amounts of the original dose of pentamidine were recovered
% Dose absorbed excreted in urine, transdermal dose 0-48, Average (SD) ([2]; dose absorbed from urine % bioavailability, average of 4 monkeys): 2.26 (1.45) %
% Dose absorbed excreted in urine, transdermal dose 0-48 ([2]; dose absorbed from urine % bioavailability, individual monkeys 1, 2, 3, 4): 2.15% and 3.88% and 2.62% and 0.38%
% Bioavailability ([2]; dose-corrected ratio of total pentamidine excreted in urine, transdermal vs IV, individual monkeys 1, 2, 3, 4): 50.34% and 19.32% and 73.28% and 85.62%
AUC, Trans (0-72 hr) ([2]; plasma, transdermal 292 mg, individual monkeys 1, 2, 3, 4, 4320 min): 7407 (ng/ml) h and 3426 (ng/ml) h and 2721 (ng/ml) h and 4384 (ng/ml) h
bioavailability ([2]; rhesus monkey, plasma, topical or ocular, 292 mg, % Absolute Bioavail., Average (SD), (AUCtrans/AUCiv) × (DOSEiv/DOSEtrans) × 100, average of 4 monkeys): 43.6%
AUC at 72 h ([2]; rhesus monkey, plasma, topical or ocular, 292 mg, AUC, Trans (0-72 hr), Average (SD), transdermal 292 mg, average of 4 monkeys): 4480 ng·h/mL
Fa at 24 h ([2]; rhesus monkey, residual in pads, topical or ocular, 292 mg, % Absorbed (from residual analysis in the pads), Average (SD), transdermal, average of 4 monkeys): 57.7%
bioavailability ([2]; rhesus monkey, urine, topical or ocular, 292 mg, % Bioavailability, Average (SD), dose-corrected ratio of total pentamidine excreted in urine, transdermal vs IV, average of 4 monkeys): 57.1%
% Absorbed (from residual analysis in the pads) ([2]; transdermal, individual monkeys 1, 2, 3, 4, 1440 min): 70.9% and 54.4% and 58.8% and 46.5%
Urine Cum. Pentam., Trans. 0-48 h, Average (SD) ([2]; urine, transdermal, average of 4 monkeys): 2.98 (1.97) mg
Urine Cum. Pentam., Trans. 0-48 h ([2]; urine, transdermal, individual monkeys 1, 2, 3, 4): 3.16 mg and 2.18 mg and 5.61 mg and 0.95 mg
blood levels of pentamidine by transdermal delivery [3]: effective blood levels of pentamidine can be achieved by transdermal delivery
Total Clearance, IV dose ([4]; DOSEiv/AUCiv, individual monkeys 1, 2, 3, 4, 4 mg/kg): 39.27 lt/h and 24.18 lt/h and 20.38 lt/h and 19.38 lt/h
AUC, IV (0-5 h) ([4]; plasma, IV 4 mg/kg, 1 hr infusion, individual monkeys 1, 2, 3, 4, 4 mg/kg, 300 min): 428 (ng/ml) h and 719 (ng/ml) h and 883 (ng/ml) h and 784 (ng/ml) h
AUC at 5 h ([4]; rhesus monkey, plasma, iv, 4 mg/kg, AUC, IV (0-5 h), Average (SD), IV 4 mg/kg, 1 hr infusion, average of 4 monkeys): 704 ng·h/mL
clearance ([4]; rhesus monkey, plasma, iv, 4 mg/kg, DOSEiv/AUCiv, average of 4 monkeys, read-out: Total Clearance, IV dose, Average (SD) (converted)): 430 mL/min
dose excreted at 48 h ([4]; rhesus monkey, urine, iv, 4 mg/kg, IV, average of 4 monkeys, read-out: % Dose excreted in urine, IV dose 0-48 h, Average (SD)): 2.28%
CL renal at 48 h ([4]; rhesus monkey, urine, iv, 4 mg/kg, amount in urine (0-48 h)/AUCiv, average of 4 monkeys, read-out: Renal Clearance, IV dose, Average (SD) (converted)): 10 mL/min
Urine Cum. Pentam., IV 0-48 h, Average (SD) ([4]; urine, IV, average of 4 monkeys): 0.39 (0.27) mg
Urine Cum. Pentam., IV 0-48 h ([4]; urine, IV, individual monkeys 1, 2, 3, 4): 0.360 mg and 0.691 mg and 0.473 mg and 0.054 mg

Cc1ccc(C(C)C)c(O)c1 [thymol]
penetration enhancement for transdermal delivery of pentamidine ([1]; result in words): effective penetration enhancers

CC12CCC(CC1=O)C2(C)C (stereo not drawn) [camphor]
penetration enhancement for transdermal delivery of pentamidine ([1]; result in words): effective penetration enhancers

C=C(C)C1CCC(C)C(O)C1 (stereo not drawn) [dihydrocarveol]
penetration enhancement for transdermal delivery of pentamidine ([1]; result in words): effective penetration enhancers

Cc1ccc(C(C)C)cc1O [carvacrol]
penetration enhancement for transdermal delivery of pentamidine ([1]; result in words): effective penetration enhancers

C=C(C)C1CC=C(C)C(=O)C1 (stereo not drawn) [carvone]
penetration enhancement for transdermal delivery of pentamidine ([1]; result in words): effective penetration enhancers

CC1=CCC(C(C)(C)O)CC1 (stereo not drawn) [α-terpineol]
penetration enhancement for transdermal delivery of pentamidine ([1]; result in words): effective penetration enhancers
